Values of other authors in patent US20050053655A1, “Rapid disintegrating tablets (RDTs) for pharmaceutical use and method for preparing the same” (Pharmaceutical Industry Technology and Development Center, priority 2003, published 2005).

- solubility in water: very slightly soluble in water
SMILES: NC(N)=Nc1nc(CSCCC(N)=NS(N)(=O)=O)cs1 [Famotidine, famotidine]
